Test results published in US9707253B2, “High-loading, controlled-release magnesium oral dosage forms and methods for making and using same” (Pharmalyte Solutions, LLC, priority 2008, dated 2017).
Several values for one entry are separate records, joined by “and”; a condition that tells them apart may be missing. Identical values can stand only once.

Assays:
[1] = healthy subjects, approximately 21 mEq, urinary excretion; cited from earlier work
[2] = oral magnesium salts, background statement; cited from earlier work
[3] = Absolute bioavailability study: serum magnesium pharmacokinetics; conditions: fasted; for AUC0-72 / AUC0-t / Cmax: mean (SD); for Tmax: median (range)
From the text: (§1) A study has been conducted to investigate magnesium L-lactate dihydrate extended release caplets for management of magnesium-deficient patients who have experienced electrolyte imbalance due to iatrogenic or disease cause such as episodic migraine headaches. […] A study to compare the absolute bioavailability of an oral magnesium formulation compared to an IV administered magnesium sulfate including both serum and urine pharmacokinetic parameters has never been reported in the scientific literature.
(§2) Three treatment regimens (Treatments A, B, and C) were employed in the study.
(§3) Urine and blood samples were collected for pharmacokinetic (PK) analysis of urinary and serum magnesium concentrations. A total of 29 urine samples for each subject were collected continuously throughout the study for determination of fractional and daily urine magnesium concentrations, and 33 blood samples were collected from each subject for determination of serum magnesium concentrations at each time point during the study.
(§4) The PK analysis population included 29 subjects for Treatment A, 29 subjects for Treatment B, and 31 subjects for Treatment C.
(§5) The absolute bioavailability of magnesium was evaluated by comparing serum magnesium exposure (AUC0-72) or urinary magnesium excretion (Ae0-72) after oral versus IV administration.

[4] = Absolute bioavailability study: urinary magnesium pharmacokinetics; conditions: baseline-adjusted, Treatment B: IV infusion 20 mEq over 4 hours, fasted
From the text: as §1, §2, §3, §4, §5

[5] = normal: minimum 33.9 mEq/IU; cited from earlier work
[6] = baseline-adjusted, Treatment B: IV infusion 20 mEq over 4 hours
[7] = observed, Treatment B: IV infusion 20 mEq over 4 hours

[O]=[Mg] [magnesium oxide]
fractional absorption average [1]: 4%
bioavailability [2]: about 2%

[Cl-].[Cl-].[Mg+2] [magnesium chloride]
bioavailability [2]: about 20%

O=S(=O)([O-])[O-].[Mg+2] [magnesium sulfate]
AUC0-72 [3, 6]: 76.2 (37.9) h · μg/mL
AUC0-t [3, 6]: 72.8 (35.4) h · μg/mL
Cmax [3, 6]: 6.79 (1.46) μg/mL
Tmax [3, 6]: 4.00 (2.00-6.00) h
AUC0-72 [3, 7]: 1390 (121) h · μg/mL
AUC0-t [3, 7]: 1390 (121) h · μg/mL
Cmax [3, 7]: 25.7 (1.62) μg/mL
Tmax ([3]; observed, Treatment B: single IV infusion 20 mEq over 4 hours): 4.00 (2.00-6.00) h
CLR0-72 ([4]; median (range)): 3.57 (1.44-35.6) L/h
Ae0-72 ([4]; urine, mean (SD)): 225 (49.5) mg
Rmax ([4]; urine, mean (SD)): 20.5 (4.29) mg/h
fe0-72 ([4]; urine, mean (SD)): 92.7% and 92.7 (20.4) %
Tmax,rate ([4]; urine, median (range)): 5.00 (3.00-9.00) h

magnesium gluconate
bioavailability [2]: about 20%

CC(O)C(=O)[O-].CC(O)C(=O)[O-].[Mg+2] (stereo not drawn) [magnesium lactate, 2-hydroxypropanoic acid magnesium salt]
effective in repleting intracellular magnesium levels to normal ranges [5]: 100%
